Assay results reported in patent US11167046B2, “IR dyes for fluorescence imaging” (LI-COR, INC., priority 2014, dated 2021).
Read-outs that look alike come from different tables or passages of the source.

Tests used:
[1] = Clearance profiles by whole-animal fluorescence imaging (dorsal and ventral) in nude mice; assay type: in vivo
Procedure: (§1) Animals injected with the probes were imaged over time using the 800 fluorescence channel of the Pearl Impulse Imaging System (LI-COR Biosciences). Clearance profiles for 800CW, the compound of Formula 1, and the compound of Formula 2 were carried out in nude mice (dose of 1 nmole for all compounds). Serial images and excised organs were evaluated over a 24 hr period. A Pearl Impulse small animal imaging system was used for all animal and organ image acquisitions.
Non-invasive imaging will not capture signals for the full depth of the animal but the intensity values are useful to show a relative trend.
Another way of examining fluorescence signals is by measuring the % of the compound remaining at a particular time point. The 30 min time point is the baseline to which other time points are normalized.
The percent signal remaining at each time is shown with the 30 min time point post-injection, which is used as the baseline.

[2] = Excitation and emission of the NIR imaging probe; assay type: physicochemical
Text: The NIR imaging probe used was the compound of Formula 1; excitation 773 nm and emission 790 nm or independently, Formula 2, excitation 772 nm and emission 787 nm.

[3] = system: A431 cells; test: In vitro cell-based assay of non-specific binding, A431 cells; details: dyes compared to 800CW
Text: (§2) FIGS. 2A, and 2B illustrate in vitro cell-based analyses for A549 cells (A) and A431 cells (B).
(§3) In vitro cell-based assays with two carcinoma cell lines (A431 and A549) were done to assess non-specific binding of the compound of Formula 1 and the compound of Formula 2. The dyes were compared to 800CW.
(§4) The fluorescence in each well was quantified with the instrument software.

[4] = Excised organs imaged at 24 hrs; assay type: in vivo, nude mice; details: for detected in the brain: excised organs at 24 hrs
Procedure: as §1
Organs were excised at 24 hrs and imaged.

[5] = mouse, in vivo
[6] = system: A549 cells; test: In vitro cell-based assay of non-specific binding, A549 cells; details: dyes compared to 800CW
Text: as §2, §3, §4

[7] = Solubility in water or aqueous media; assay type: physicochemical; details: for concentration when re-suspended in water: in some embodiments; for solubility in water: stated as 'can be'
[8] = Elimination routes in mice: serial whole animal imaging and organ imaging; assay type: in vivo, nude mice; details: for plasma protein binding: inferred from liver retention / clearance; for excretion / elimination route: 1 nmole by tail vein injection; for signal in kidneys and liver, organ 1/10th LUT scale: organs harvested after 24 hours, 1 nmole tail vein
Procedure: This example describes an experiment to evaluate the excretion of the dyes described herein from animals injected with such. The dyes tested were stable cyanine dyes (IRdyes): 800CW, 800BK-sulfonate (compound of Formula 1; 800BK or BK) and 800BK-NOS (compound of Formula 2; 800NOS or NOS). In this study 12 nude mice (3 per treatment group) were injected with either (1) no probe (control group); (2) 800CW; (3) 800NOS; or (4) 800BK. The three probes (800CW-1166 g/mole (should have been 1091.1 g/mole), 800NOS-1011.09 g/mole, and 800BK-1113.14 g/mole) were dissolved in PBS. A spot test of the three probes was performed to detect the fluorescent signal when diluted to the injection dose of 1 nmole/100 μl (FIG. 12).
The mice received 1 nmole of dye by tail vein injection. The mice were imaged serially over 24 hours after IV injection: 5 minutes, 1 hour, 2 hours, 4 hours, 6 hours and 24 hours after injection. A representative series of images are presented in FIGS. 13A-13C of one animal per dye. All the data was normalized to the same LUT. A control mouse (no probe) was used as a reference (no signal control). Imaging was performed using the Pearl® Trilogy Imaging System (LI-COR®).
The mice were then sacrificed and their organs and tissue (i.e., liver, kidney, lungs, spleen and muscle) were harvested. The organs were imaged to detect fluorescence. When the same LUT was used for the animal and organ images, fluorescence in the organs was not detectable. As such, the low end of the animal scale was expanded such that the images of the organs could be evaluated (FIG. 14). For example, the “Organs 1/10th scale” was used for the images of FIGS. 15A-15D and the “Organs 1/100th scales was used for the images of FIGS. 16A-16D.

[9] = Excised organ evaluation at 24 hrs and 72 hrs; assay type: in vivo, mouse
Text: FIGS. 11A-11H show images of various mouse organs after administration. Fluorescence images of various mouse organs at 24 and 72 hrs post-administration for the comparative control (FIG. 11A), compound of Formula 1 (FIGS. 11C and 11E) and compound of Formula 2 (FIGS. 11B and 11D). Organs examined included: heart (Ht), lungs (Ln), kidney (Kd), liver (Lv), spleen (Spl), intestine (Int), brain (Br), and muscle (Ms). […] FIGS. 11F-11H show intraoperative fluorescence (800 nm, compound of Formula 2) (FIG. 11G), white light (FIG. 11F), and composite images of the liver, gall bladder, and bile duct for compound of Formula 2 (0.1 nmole) (FIG. 11H).
Fluorescent signal intensities of various organs were examined at 24 hrs and 72 hrs for the compound of Formula 1 and the compound of Formula 2 (FIG. 11A-11E). Organs examined included: heart (Ht), lungs (Ln), kidney (Kd), liver (Lv), spleen (Spl), intestine (Int), brain (Br), and muscle (Ms).

[10] = Biliary tract imaging, comparison with ICG and dose response; assay type: in vivo, mouse; details: for time post-intravenous administration by which gall bladder is visible: continues visible at 2 hrs and 5 hrs
Procedure: A Pearl Impulse small animal imaging system was used for all animal and organ image acquisitions.
A comparison of the dose responses for the compound of Formula 2 are shown in FIG. 10B (1 nmole), FIG. 10C (0.5 nmole), and FIGS. 10D and 10E (0.1 nmole) at time periods of 1 min, 30 min, 2 hrs, 5 hrs, and 24 hrs. All images are presented using the same LUT table except FIG. 10E where the LUT for FIG. 10D has been reduced to brighten the 800 nm signal so they are visible.

[11] = Fluorescent signal analysis of mouse urine; details: urine extracted with acetonitrile:methanol; Odyssey CLx, 800 nm
[12] = 30 min post-injection (baseline), 1 nmole, whole body, ventral view
[13] = 120 min post-injection, normalized to 30 min, 1 nmole
[14] = 300 min post-injection, normalized to 30 min, 1 nmole
[15] = 1440 min post-injection, normalized to 30 min, 1 nmole

clearance pattern (route), ventral images ([1]; 1 nmole) | percent signal remaining [1, 12] [%] | percent signal remaining [1, 13] [%] | percent signal remaining [1, 14] [%] | percent signal remaining [1, 15] [%] | emission [2] [nm] | excitation [2] [nm] | detected in the brain [4] | concentration when re-suspended in water [7] | solubility in water [7] | signal in kidneys and liver, organ 1/10th LUT scale [8] | fluorescent signal in excised organs ([9]; 24 hrs post administration) | fluorescent signal in excised organs ([9]; 72 hrs post administration) | SMILES | non-specific binding [3] | non-specific binding [6] | plasma protein binding [8] | retention time in the liver ([8]; nude mice, 1 nmole IV) | excretion / elimination route ([8]; nude mice) | other results
clear rapidly via the kidney | 100 | 81 | 19 | 1.4 | 790 | 773 | None | at least 200 mg/mL | highly soluble in water | detectable signal | some signal in the liver and kidney | diminished substantially | CC1(C)C(/C=C/C2=C(Oc3ccc(S(=O)(=O)O)cc3)C(=C/C=C3/N(CCCCS(=O)(=O)O)c4ccc(S(=O)(=O)[O-])cc4C3(C)C)/CCC2)=[N+](CCCCS(=O)(=O)O)c2ccc(S(=O)(=O)O)cc21 [Compound of Formula 1, 2-((E)-2-((E)-3-(2-((E)-3,3-dimethyl-5-sulfonato-1-(4-sulfonatobutyl)indolin-2-ylidene)ethylidene)-2-(4-sulfonatophenoxy)cyclohex-1-en-1-yl)vinyl)-3,3-dimethyl-1-(4-sulfonatobutyl)-3H-indol-1-ium-5-sulfonate] | more comparable to 800CW | more comparable to 800CW | increased (higher) plasma protein binding of 800BK than 800CW | longer retention time in the liver compared to 800CW and 800NOS | excreted renally | bladder signal, ventral images ([1]; 1 nmole): strongest signal; movement through tissues and retention in organs ([1]; in vivo data): moves rapidly through the tissues but is retained for an extended period in organs; clearance (whole body fluorescence) compared to compound of Formula 2 ([1]; ventral view, 1 nmole): slower clearance; retention in liver and kidney, excised organs ([4]; 24 hrs post injection): retained at higher levels in the liver and kidney compared to the compound of Formula 2; primary elimination route [5]: renal; signal in the liver ([8]; excised organs, 24 hours): higher signal compared to 800CW
clears through the liver | 100 | 70 | 14 | 1.4 | 787 | 772 | None | at least 200 mg/mL | highly soluble in water | detectable signal | some signal in the liver and kidney | diminished substantially | CC1(C)C(/C=C/C2=C(Oc3ccccc3)C(=C/C=C3/N(CCCCS(=O)(=O)O)c4ccc(S(=O)(=O)[O-])cc4C3(C)C)/CCC2)=[N+](CCCCS(=O)(=O)O)c2ccc(S(=O)(=O)O)cc21 [Compound of Formula 2, 2-((E)-2-((E)-3-(2-((E)-3,3-dimethyl-5-sulfonato-1-(4-sulfonatobutyl)indolin-2-ylidene)ethylidene)-2-phenoxycyclohex-1-en-1-yl)vinyl)-3,3-dimethyl-1-(4-sulfonatobutyl)-3H-indol-1-ium-5-sulfonate] | significant increase in non-specific binding compared to either the compound of Formula 1 and 800CW by two-fold | significant increase in non-specific binding compared to either the compound of Formula 1 and 800CW by two-fold | low plasma protein binding activity | very short retention time in the liver | eliminated from the body via the biliary tract (liver, gall bladder and bile ducts) and intestines | percent signal remaining ([1]; 120 min post-injection, normalized to 30 min, 1 nmole, listed as compound of Formula 2): greatest reduction; fluorescence signal, dorsal view ([1]; 2 hrs post injection, 1 nmole): high signal, emanating in the liver region; whole body signal ([1]; 5 hr post injection, 1 nmole): low compared to 800CW and the compound of Formula 1; whole body fluorescence signal ([1]; ventral view, 1 nmole): lower overall than the signal for 800CW and the compound of Formula 1; detection signal in images ([10]; 0.1 nmole dose, same scale as 1 nmole and 0.5 nmole series): very low detection signal; gall bladder target region visibility ([10]; 0.1 nmole dose, scale adjusted (FIG. 10E)): visible on a very low background; time post-intravenous administration by which gall bladder is visible ([10]; 0.5 nmole dose): ≤ 30 min; time post-intravenous administration by which gall bladder is visible ([10]; 1 nmole dose): ≤ 30 min; liver signals, excised organs ([4]; 24 hrs post injection): lower liver signals at 24 hrs when compared to 800CW and the compound of Formula 1; fluorescent signal in urine [5]: slight fluorescence; intestinal signal ([8]; 24 hours post injection): barely detectable; clearance from the whole body to the biliary system ([8]; nude mice, 1 nmole IV): rapid; excretion into the intestines ([8]; nude mice, 1 nmole IV): rapid excretion into the intestines; time at which the liver was visible ([8]; nude mice, 1 nmole IV): 15 min; time during which predominant signal was in the intestines ([8]; nude mice, 1 nmole IV): 2 to 6 h
 |  |  |  |  |  |  |  |  |  |  |  |  | CC1(C)C(/C=C/C=C/C=C/C=C2/N(CCCCS(=O)(=O)[O-])c3ccc4ccccc4c3C2(C)C)=[N+](CCCCS(=O)(=O)[O-])c2ccc3ccccc3c21.[Na+] [ICG, indocyanine green] |  |  |  |  |  | fluorescent signal in urine [11]: No fluorescent signal
